Biological target: T1, SRPK1 (Homo sapiens, UniProt Q96SB4)
T1 construct: 0.1 µg of purified SRPK1 kinase
Assay: In vitro kinase assay (Kinase-Glo), SRPK1 inhibition
Assay type: biochemical
Settings: for IC50: SRPK1 inhibition assay, 1 µM ATP, SRSF1 RS peptide, 30°C 10 minutes
Procedure: Candidate compounds were tested for SRPK1 inhibition using a Kinase-Glo assay (Promega, Southampton, UK32). […] Candidate compounds were serially diluted from 10 µM to 0.5 nM and added to the reaction mixture, wells with omitted SRPK1 kinase and omitted compounds were also added as controls. All wells contained 1% DMSO (Fisher Scientific, Loughborough, UK). One micromolar ATP was added, wells minus ATP were used as background controls. The plate was then incubated at 30°C for 10 minutes. An equal volume of Kinase-Glo (25 µL; Promega) was added to each well and the plate read for luminescence using a Fluostar Optima (BMG Labtech) .

T1 sequence (Q96SB4 whole entry): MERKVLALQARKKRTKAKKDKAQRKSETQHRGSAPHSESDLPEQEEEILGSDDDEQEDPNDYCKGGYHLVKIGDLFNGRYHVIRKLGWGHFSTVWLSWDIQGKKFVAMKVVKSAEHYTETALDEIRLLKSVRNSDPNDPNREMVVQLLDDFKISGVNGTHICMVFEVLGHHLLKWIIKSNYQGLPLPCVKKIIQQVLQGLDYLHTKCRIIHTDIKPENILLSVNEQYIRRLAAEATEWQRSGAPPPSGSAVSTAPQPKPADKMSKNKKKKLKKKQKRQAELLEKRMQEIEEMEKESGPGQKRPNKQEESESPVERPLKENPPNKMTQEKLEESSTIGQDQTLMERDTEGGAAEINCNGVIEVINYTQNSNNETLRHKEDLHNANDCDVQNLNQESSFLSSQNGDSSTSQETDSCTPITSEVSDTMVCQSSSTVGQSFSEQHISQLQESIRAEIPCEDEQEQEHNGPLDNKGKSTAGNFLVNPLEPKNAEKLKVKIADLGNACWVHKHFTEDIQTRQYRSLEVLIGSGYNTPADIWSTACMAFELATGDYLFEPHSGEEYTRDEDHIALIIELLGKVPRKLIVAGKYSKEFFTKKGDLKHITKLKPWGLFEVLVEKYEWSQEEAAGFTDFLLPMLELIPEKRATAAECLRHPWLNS

Row | Structure (SMILES) | IC50 [µM] | potency against SRPK1 relative to analogous compounds in which R3 is a pyridyl ring (by kinase assay or differential scanning fluorimetry, Figures 1 and 2)
1 | O=C(Nc1cc(C(F)(F)F)ccc1N1CCN(Cc2cocn2)CC1)c1cc2ccccc2o1 [Compound 51, N-(2-(4-(oxazol-4-ylmethyl)piperazin-1-yl)-5-(trifluoro-methyl)-phenyl)benzofuran-2-carboxamide] | 0.021 | 
2 | O=C(Nc1cc(C(F)(F)F)ccc1N1CCN(Cc2cocn2)CC1)c1ncccn1 [Compound 54, N-(2-(4-(oxazol-4-ylmethyl)piperazin-1-yl)-5-(trifluoro-methyl)phenyl)pyrimidine-2-carboxamide] | 0.344 | 
3 | O=C(Nc1cc(C(F)(F)F)ccc1N1CCN(Cc2cncs2)CC1)c1ccccn1 [Compound 32, N-(2-(4-(thiazol-5-ylmethyl)piperazin-1-yl)-5-(trifluoromethyl)phenyl)-picolinamide] | 0.0005 | 
4 | O=C(Nc1cc(C(F)(F)F)ccc1N1CCN(Cc2cocn2)CC1)c1nc2ccccc2o1 [Compound 55, N-(2-(4-(oxazol-4-ylmethyl)piperazin-1-yl)-5-(trifluoromethyl)phenyl)benzo[d]oxazole-2-carboxamide] | 1.84 | 
5 | O=C(Nc1cc(C(F)(F)F)ccc1N1CCN(Cc2ccno2)CC1)c1ccccn1 [Compound 62, N-(2-(4-(isoxazol-5-ylmethyl)piperazin-1-yl)-5-(trifluoro-methyl)phenyl)picolinamide] | 0.0028 | 
6 | Cc1ccc(C(=O)Nc2cc(C(F)(F)F)ccc2N2CCN(Cc3ccoc3)CC2)o1 [Compound 45, N-(2-(4-(furan-3-ylmethyl)piperazin-1-yl)-5-(trifluoromethyl)phenyl)-5-methylfuran-2-carboxamide] | 0.0018 | 
7 | O=C(Nc1cc(C(F)(F)F)ccc1N1CCN(Cc2ccoc2)CC1)c1ccc(C2CCOCC2)o1 [Compound 43, N-(2-(4-(furan-3-ylmethyl)piperazin-1-yl)-5-(trifluoromethyl)phenyl)-5-(tetrahydro-2H-pyran-4-yl)furan-2-carboxamide] | 0.0007 | improved potency
8 | O=C(Nc1cc(C(F)(F)F)ccc1N1CCN(Cc2cocn2)CC1)c1cnccn1 [Compound 52, N-(2-(4-(oxazol-4-ylmethyl)piperazin-1-yl)-5-(trifluoro-methyl)phenyl)pyrazine-2-carboxamide] | 0.162 | 
9 | O=C(Nc1cc(C(F)(F)F)ccc1N1CCN(Cc2cocn2)CC1)c1ccccc1 [Compound 71, N-(2-(4-(oxazol-4-ylmethyl)piperazin-1-yl)-5-(trifluoromethyl)phenyl) benzamide] | 0.718 | 
10 | O=C(Nc1cc(C(F)(F)F)ccc1N1CCN(Cc2cncs2)CC1)c1ccc(C2CCOCC2)o1 [Compound 70, 5-(tetrahydro-2H-pyran-4-yl)-N-(2-(4-(thiazol-5-ylmethyl)piperazin-1-yl)-5-(trifluoromethyl)phenyl)furan-2-carboxamide] | 0.0005 | 
11 | O=C(Nc1cc(C(F)(F)F)ccc1N1CCN(Cc2cocn2)CC1)c1cc[nH]n1 [Compound 53, N-(2-(4-(oxazol-4-ylmethyl)piperazin-1-yl)-5-(trifluoro-methyl)phenyl)-1H-pyrazole-3-carboxamide] | 0.0831 | 
12 | Cc1nnc(CN2CCN(c3ccc(C(F)(F)F)cc3NC(=O)c3ccco3)CC2)o1 [Compound 49, N-(2-(4-((5-methyl-1,3,4-oxadiazol-2-yl)methyl)piperazin-1-yl)-5-(trifluoromethyl)phenyl)furan-2-carboxamide] | 0.117 | 
13 | O=C(Nc1cc(C(F)(F)F)ccc1N1CCN(Cc2ccno2)CC1)c1ccco1 [Compound 63, N-(2-(4-(isoxazol-5-ylmethyl)piperazin-1-yl)-5-(trifluoro-methyl)phenyl)furan-2-carboxamide] | 0.317 | 
14 | O=C(Nc1cc(C(F)(F)F)ccc1N1CCN(Cc2cocn2)CC1)c1ccco1 [Compound 39, N-(2-(4-(oxazol-4-ylmethyl)piperazin-1-yl)-5-(trifluoro-methyl)-phenyl)furan-2-carboxamide] | 0.0607 | 
15 | O=C(Nc1cc(C(F)(F)F)ccc1N1CCN(Cc2cocn2)CC1)c1ccccn1 [Compound 36, N-(2-(4-(oxazol-4-ylmethyl)piperazin-1-yl)-5-(trifluoromethyl)phenyl)-picolinamide] | 0.0216 | 
16 | O=C(Nc1cc(C(F)(F)F)ccc1N1CCN(Cc2cocn2)CC1)c1cocn1 [Compound 57, N-(2-(4-(oxazol-4-ylmethyl)piperazin-1-yl)-5-(trifluoro-methyl)phenyl)oxazole-4-carboxamide] | 0.117 | 
17 | O=C(Nc1cc(C(F)(F)F)ccc1N1CCN(Cc2cocn2)CC1)c1ccno1 [Compound 50, N-(2-(4-(oxazol-4-ylmethyl)piperazin-1-yl)-5-(trifluoro-methyl)phenyl)isoxazole-5-carboxamide] | 0.561 | 
18 | O=C(Nc1cc(C(F)(F)F)ccc1N1CCN(Cc2cocn2)CC1)c1cccc(C2CCOCC2)n1 [Compound 58, N-(2-(4-(oxazol-4-ylmethyl)piperazin-1-yl)-5-(trifluoromethyl)phenyl)-6-(tetrahydro-2H-pyran-4-yl)picolinamide] | 0.104 | 

Row | Structure (SMILES) | IC50 [µM] | potency against SRPK1 relative to analogous compounds in which R3 is a pyridyl ring (by kinase assay or differential scanning fluorimetry, Figures 1 and 2)
19 | O=C(Nc1cc(C(F)(F)F)ccc1N1CCN(Cc2cscn2)CC1)c1ccccn1 [Compound 31, N-(2-(4-(thiazol-4-ylmethyl)piperazin-1-yl)-5-(trifluoromethyl)phenyl)-picolinamide] | 0.0067 | 
20 | Cc1ccc(CN2CCN(c3ccc(C(F)(F)F)cc3NC(=O)c3ccccn3)CC2)o1 [Compound 40, N-(2-(4-((5-methylfuran-2-yl)methyl)piperazin-1-yl)-5-(trifluoro-methyl)phenyl)picolinamide] | 0.145 | 
21 | O=C(Nc1cc(C(F)(F)F)ccc1N1CCN(Cc2cnoc2)CC1)c1ccccn1 [Compound 67, N-(2-(4-(isoxazol-4-ylmethyl)piperazin-1-yl)-5-(trifluoro-methyl)phenyl)-picolinamide] | 0.0088 | 
22 | O=C(Nc1cc(C(F)(F)F)ccc1N1CCN(Cc2cc[nH]n2)CC1)c1ccccn1 [Compound 33, N-(2-(4-((1H-pyrazol-3-yl)methyl)piperazin-1-yl)-5-(trifluoromethyl)-phenyl)picolinamide] | 0.0127 | 
23 | Cc1ccc(CN2CCN(c3ccc(C(F)(F)F)cc3NC(=O)c3ccc(C4CCOCC4)o3)CC2)o1 [Compound 44, N-(2-(4-((5-methylfuran-2-yl)methyl)piperazin-1-yl)-5-(trifluoromethyl)phenyl)-5-(tetrahydro-2H-pyran-4-yl)furan-2-carboxamide] | 0.0037 | 
24 | O=C(Nc1cc(C(F)(F)F)ccc1N1CCN(Cc2cocn2)CC1)c1ncco1 [Compound 42, N-(2-(4-(oxazol-4-ylmethyl)piperazin-1-yl)-5-(trifluoro-methyl)phenyl)oxazole-2-carboxamide] | 1.26 | 
25 | O=C(Nc1cc(C(F)(F)F)ccc1N1CCN(Cc2ccoc2)CC1)c1ccccn1 [Compound 72, N-(2-(4-(furan-3-ylmethyl)piperazin-1-yl)-5-(trifluoromethyl)phenyl)picolinamide] | 0.0053 | 
26 | Cn1ccc(CN2CCN(c3ccc(C(F)(F)F)cc3NC(=O)c3ccccn3)CC2)n1 [Compound 34, N-(2-(4-((1-methyl-1H-pyrazol-3-yl)methyl)piperazin-1-yl)-5-(trifluoromethyl)phenyl)picolinamide] | 0.027 | 
27 | O=C(Nc1cc(C(F)(F)F)ccc1N1CCN(Cc2ccco2)CC1)c1ccncc1 [Compound 35, N-(2-(4-(furan-2-ylmethyl)piperazin-1-yl)-5-(trifluoromethyl)-phenyl)isonicotinamide] | 0.388 | 
28 | O=C(Nc1cc(C(F)(F)F)ccc1N1CCN(Cc2ccoc2)CC1)c1ccco1 [Compound 47, N-(2-(4-(furan-3-ylmethyl)piperazin-1-yl)-5-(trifluoromethyl)phenyl)furan-2-carboxamide] | 0.0219 | 
29 | O=C(Nc1cc(C(F)(F)F)ccc1N1CCN(Cc2c[nH]c3ccccc23)CC1)c1ccccn1 [Compound 38, N-(2-(4-((1H-indol-3-yl)methyl)piperazin-1-yl)-5-(trifluoromethyl)phenyl)picolinamide] | 0.0313 | 
30 | O=C(Nc1cc(C(F)(F)F)ccc1N1CCN(Cc2cocn2)CC1)c1ccc(C2CCOCC2)cn1 [Compound 59, N-(2-(4-(oxazol-4-ylmethyl)piperazin-1-yl)-5-(trifluoromethyl)phenyl)-5-(tetrahydro-2H-pyran-4-yl)picolinamide] | 0.974 | 
31 | Cc1ccc(CN2CCN(c3ccc(C(F)(F)F)cc3NC(=O)c3ccc(C)o3)CC2)o1 [Compound 46, 5-methyl-N-(2-(4-((5-methylfuran-2-yl)methyl)piperazin-1-yl)-5-(trifluoromethyl)phenyl)furan-2-carboxamide] | 0.0107 | 
32 | O=C(Nc1cc(C(F)(F)F)ccc1N1CCN(Cc2c[nH]c3ccccc23)CC1)c1ccco1 [Compound 75, N-(2-(4-((1H-indol-3-yl)methyl)piperazin-1-yl)-5-(trifluoromethyl)phenyl)furan-2-carboxamide] | 0.0749 | 
33 | Cc1ccc(CN2CCN(c3ccc(C(F)(F)F)cc3NC(=O)c3ccco3)CC2)o1 [Compound 48, N-(2-(4-((5-methylfuran-2-yl)methyl)piperazin-1-yl)-5-(trifluoromethyl)phenyl)furan-2-carboxamide] | 0.0326 | 
34 | O=C(Nc1cc(C(F)(F)F)ccc1N1CCN(Cc2cocn2)CC1)c1ccncn1 [Compound 56, N-(2-(4-(oxazol-4-ylmethyl)piperazin-1-yl)-5-(trifluoro-methyl)phenyl)pyrimidine-4-carboxamide] | 0.134 | 
35 | O=C(Nc1cc(C(F)(F)F)ccc1N1CCN(Cc2ccno2)CC1)c1ccc(C2CCOCC2)o1 [Compound 64, N-(2-(4-(isoxazol-5-ylmethyl)piperazin-1-yl)-5-(trifluoro-methyl)phenyl)-5-(tetrahydro-2H-pyran-4-yl)furan-2-carboxamide] | 0.0055 | 

Source: patent publication EP3362444B1, “COMPOUNDS” (Exonate Limited, priority 2015, dated 2017)
